We go through 1 compound from patent publication US12616697B2, “Methods of treatment with myosin modulator” (MyoKardia, Inc., priority 2020, dated 2026).

This data set deals with participants with symptomatic oHCM. The data set is described as follows: EXPLORER-HCM Phase 3 double blind, randomized, placebo controlled study. It counts as in vivo, human. From the text:
A subset of participants consented to participate in a CMR substudy at selected sites. Randomization was stratified according to NYHA functional classification (II or III), current treatment with β-blocker (yes or no), planned type of ergometer used during the study (treadmill or exercise bicycle), and consent for the CMR substudy (yes or no).
1) Screening period (Day −35 to Day −1): Participants will undergo a variety of general, cardiopulmonary, laboratory, symptom, and PRO assessments over 1 to 2 days in order to assess eligibility. Key Screening tests include electrocardiogram (ECG); transthoracic echocardiography (TTE) conducted at rest, with Valsalva maneuver, and post-exercise; as well as cardiopulmonary exercise testing (CPET). The following screening assessments may be repeated, as long as within the 35-days screening window: blood tests, ECG, and/or TTE. Repeat assessments are allowed if central core labs require a repeat submission due to quality and in order to better assess inclusion/exclusion values. Participants who screen fail may be considered for rescreening based on the investigator's discretion, taking into consideration the reason(s) for screen fail. One attempt at rescreening will be allowed, and all procedures must be repeated.
2) Double-blind treatment period (Day 1 [randomization] to Week 30/end of treatment [EOT]): The double-blind treatment period will include a two-step dose titration scheme designed to achieve safe and effective dosing for each participant based on their own response parameters. […] Subsequently, assessments including ECG, PK (trough plasma concentrations), and TTE will be performed at each of 7 study visits, beginning at Week 4, and read by core laboratories. At Week 8 and Week 14, the dose may be increased, decreased, or remain unchanged based upon results of Week 6 and Week 12 assessments, respectively, and based primarily on measurements of provoked left ventricular outflow tract (LVOT) gradient and bounded by a target plasma concentration (PK) range and clinical tolerability (LVEF). At Week 8, the dose may be increased to a maximum daily dose of 10 mg (ie, increase from 5 mg QD to 10 mg QD), and at Week 14 to a maximum daily dose of 15 mg (ie, increase from 10 mg QD to 15 mg QD). Dose increases are designed to be step wise and are not allowed to skip doses (eg, from 5 mg to 15 mg).
At Week 30/EOT, participants will complete CPET and post-exercise TTE. For any participants permanently discontinuing treatment prior to Week 30, an early termination (ET) visit should be conducted as soon as possible, including CPET and post-exercise TTE. Participants with ET will also be encouraged to complete all remaining study visits and assessments, including the Week 30 visit.
3) Posttreatment follow-up period (Week 30/EOT to Week 38/end of study [EOS]): When double-blind treatment ends at Week 30, participants will be contacted by phone at Week 34 and return to the site at Week 38 for an EOS visit. At the EOS visit, specified assessments will be repeated. This posttreatment follow-up period applies only to participants who are receiving study drug after Week 22.
To maintain safety throughout the double-blind treatment period, a clinic visit will occur every 2 to 4 weeks, beginning at Week 4 for an initial evaluation of clinical tolerability and safety. Clinic visits will include but are not limited to clinical evaluation (symptoms, PRO evaluations, adverse event [AE]/serious adverse event [SAE] assessment), ECGs, PK sample, TTEs, and laboratory assessments. Results of TTE performed by study site sonographers at each scheduled visit following randomization should be kept blinded to the investigator and other study site personnel. An exception may occur if left ventricular ejection fraction (LVEF)≤30% is measured at the site, then the investigator will be immediately notified and study drug will be permanently discontinued as described within the protocol. […]

For `CC(C)n1c(=O)cc(N[C@@H](C)c2ccccc2)[nH]c1=O` [mavacamten, (S)-3-Isopropyl-6-((1-phenylethyl)amino)pyrimidine-2, 4(1H,3H)-dione], where the note is “Type 1 - pVO2 ≥1.5 ml/kg/min and NYHA improved ≥1, mavacamten group (n = 123)”, the “Response Type 1, n (%)” value was 41 (33.3) n (%). Besides, where the note is “Type 2 - pVO2 ≥3.0 ml/kg/min and no worsening NYHA, mavacamten group (n = 123)”, the “Response Type 2, n (%)” value is 29 (23.6) n (%). Moreover, the “Met Composite Functional Response, either type: Mavacamten vs Placebo” value (difference, mavacamten (n = 123) vs placebo (n = 128)) is on record as 19.4%. In addition, the “participants with temporary discontinuation associated with reduced ejection fraction” value (in vivo) came out at 3. For the setting “in vivo”, the “patients who achieved a complete response (NYHA 1 and all LVOT gradients below 30 mmHg)” value was 27%. Moreover, the “patients who achieved a post-exercise LVOT peak gradient below 30 mmHg” value (in vivo) is 57%. Further, the “subjects with severe TEAEs, %” value (in vivo) was found to be 5.7%. For the same compound, the “Rates of improvement by at least one NYHA class” value by setting is: (patients not receiving β blocker(s)) 65%; (patients receiving β blocker(s)) 65%. Further, the “difference vs placebo in percent of patients that met the primary endpoint” value (patients not receiving β blocker(s) (n=29)) is given as 52.6% and the “difference vs placebo in percent of patients that met the primary endpoint” value (patients receiving β blocker(s) (n=94)) is on record as 8.7%. Further, for the setting “placebo 21%”, the “patients who achieved NYHA class I status” value is given as 65%. The “subjects who experienced SAEs, %” value (through week 30) was determined as 8.1%. Moreover, the “Absence of MR (mitral regurgitation), Mava vs Placebo Difference (95% CI)” value (vs placebo) is listed as 9.0 (3.7, 14.3) %. The “VE/CO2 slope change from baseline” value by setting is: (week 30, non-β blocker subgroup) −2.5; (week 30, β blocker subgroup) −2.5. The “mean change in pVO2” value runs as follows: (week 30, those not using β blocker(s)) 2.2 mL/kg/min; (week 30, β blocker subgroup) 1.1 mL/kg/min.
